Assay results: patent publication US20260041781A1, “NOVEL GLUCOCORTICOID RECEPTOR AGONISTS AND IMMUNOCONJUGATES THEREOF” (priority 2022, published 2026)

Target: T1, GR LBD (ligand binding domain) (Homo sapiens, UniProt P04150)
T1 construct: expressed in transfected cells; host or cells: HEK293
T1 sequence (P04150 524-758 limits assumed): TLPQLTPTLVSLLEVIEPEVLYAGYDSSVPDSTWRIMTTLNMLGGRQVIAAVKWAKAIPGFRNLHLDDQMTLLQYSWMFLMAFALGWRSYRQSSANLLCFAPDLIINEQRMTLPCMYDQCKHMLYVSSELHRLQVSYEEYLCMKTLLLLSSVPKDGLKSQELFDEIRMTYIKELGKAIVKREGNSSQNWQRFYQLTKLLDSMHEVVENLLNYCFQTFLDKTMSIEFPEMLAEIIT
Test: GR Reporter Assay (pBind assay, pG5luc luciferase reporter, agonist mode)
Format: cell-based
Settings: HEK293 cells transiently transfected with pG5luc and GR LBD
Protocol: The assay is a pBind assay following the general principle outlined below. 2×10^4 HEK293 cells/96-well are transiently transfected with pG5luc and GR LBD 1:1 at 50 ng/well. GR LBD (ligand binding domain) is a […] fusion protein (used to yeast GAL4) and upon binding to the test article will bind the luciferase reporter and activate transcription of luciferase. Upon addition of a substrate, the luciferase activity can be measured and corresponds to the activity of the test article. The assay is performed in agonist mode.

| Compound | EC50 |
| --- | --- |
| C[C@]12C=CC(=O)C=C1CC[C@H]1[C@@H]3C[C@H]4O[C@@H](c5cccc(N)c5)O[C@@]4(C(=O)CF)[C@@]3(C)C[C@H](O)[C@@]12F [Compound 3] | < 5 nM |
| C[C@@H]1C[C@H]2[C@@H]3C[C@H](F)C4=CC(=O)C=C[C@]4(C)[C@@]3(F)[C@@H](O)C[C@]2(C)[C@@]1(OC(=O)c1cccc(N)c1)C(=O)N(C)CCO [Compound 18] | > 30 nM |
| C[C@@H]1C[C@H]2[C@@H]3C[C@H](F)C4=CC(=O)C=C[C@]4(C)[C@@]3(F)[C@@H](O)C[C@]2(C)[C@@]1(OC(=O)c1cccc(N)c1)C(=O)NCCO [Compound 19] | > 30 nM |
| C[C@@H]1C[C@H]2[C@@H]3C[C@H](F)C4=CC(=O)C=C[C@]4(C)[C@@]3(F)[C@@H](O)C[C@]2(C)[C@@]1(OC(=O)c1ccco1)C(=O)NCCOc1ccc(N)cc1 [Compound 7] | < 5 nM |
| C[C@@H]1C[C@H]2[C@@H]3C[C@H](F)C4=CC(=O)C=C[C@]4(C)[C@@]3(F)[C@@H](O)C[C@]2(C)[C@@]1(OC(=O)c1cccc(N)c1)C(=O)N1CCCC1 [Compound 14] | > 30 nM |
| C[C@@H]1C[C@H]2[C@@H]3C[C@H](F)C4=CC(=O)C=C[C@]4(C)[C@@]3(F)[C@@H](O)C[C@]2(C)[C@@]1(OC(=O)c1cccc(N)c1)C(=O)N(C)C [Compound 8] | < 5 nM |
| C[C@@H]1C[C@H]2[C@@H]3C[C@H](F)C4=CC(=O)C=C[C@]4(C)[C@@]3(F)[C@@H](O)C[C@]2(C)[C@@]1(OC(=O)c1ccc(N)cc1)C(=O)N(C)C [Compound 9] | < 5 nM |
| C[C@]12C=CC(=O)C=C1CC[C@H]1[C@@H]3C[C@H]4O[C@@H](c5cccc(N)c5)O[C@@]4(C(=O)CCl)[C@@]3(C)C[C@H](O)[C@@]12F [Compound 2] | < 5 nM |
| CN(C)C(=O)[C@@]12O[C@H](c3cccc(Cc4cccc(N)c4)c3)O[C@@H]1C[C@H]1[C@@H]3CCC4=CC(=O)C=C[C@]4(C)[C@H]3[C@@H](O)C[C@@]12C [Compound 23] | < 5 nM |
| CNC(=O)[C@@]1(OC(=O)c2cccc(N)c2)[C@H](C)C[C@H]2[C@@H]3C[C@H](F)C4=CC(=O)C=C[C@]4(C)[C@@]3(F)[C@@H](O)C[C@@]21C [Compound 10] | > 30 nM |

Now from value to compound:

| EC50 | Compound |
| --- | --- |
| > 30 nM | C[C@@H]1C[C@H]2[C@@H]3C[C@H](F)C4=CC(=O)C=C[C@]4(C)[C@@]3(F)[C@@H](O)C[C@]2(C)[C@@]1(OC(=O)c1cccc(N)c1)C(=O)N(C)CC(O)CO (stereo partly drawn) [Compound 20, (6S,8S,9R,10S,11S,13S,14S,16R,17R)-17-((2,3-dihydroxypropyl)(methyl)carbamoyl)-6,9-difluoro-11-hydroxy-10,13,16-trimethyl-3-oxo-6,7,8,9,10,11,12,13,14,15,16,17-dodecahydro-3H-cyclopenta[a]phenanthren-17-yl 3-aminobenzoate] |
| < 5 nM | C[C@@H]1C[C@H]2[C@@H]3CCC4=CC(=O)C=C[C@]4(C)[C@@]3(F)[C@@H](O)C[C@]2(C)[C@@]1(OC(=O)c1cccc(N)c1)C(=O)N(C)C [Compound 12] |
| < 5 nM | C[C@]12C=CC(=O)C=C1CC[C@@H]1[C@@H]2[C@@H](O)C[C@@]2(C)[C@H]1C[C@H]1O[C@@H](c3ccc(Cc4cccc(N)c4)cc3)O[C@]12C(=O)CF [Compound 25] |
| > 30 nM | C[C@@H]1C[C@H]2[C@@H]3C[C@H](F)C4=CC(=O)C=C[C@]4(C)[C@@]3(F)[C@@H](O)C[C@]2(C)[C@@]1(OC(=O)c1cccc(N)c1)C(=O)N1CC(CO)C1 [Compound 17] |
| > 30 nM | C[C@@H]1C[C@H]2[C@@H]3C[C@H](F)C4=CC(=O)C=C[C@]4(C)[C@@]3(F)[C@@H](O)C[C@]2(C)[C@@]1(OC(=O)c1cccc(N)c1)C(=O)N1CCOCC1 [Compound 15] |
| > 30 nM | CNC(=O)[C@@]1(OC(=O)c2ccc(N)cc2)[C@H](C)C[C@H]2[C@@H]3C[C@H](F)C4=CC(=O)C=C[C@]4(C)[C@@]3(F)[C@@H](O)C[C@@]21C [Compound 11] |
| < 5 nM | C[C@]12C=CC(=O)C=C1CC[C@H]1[C@@H]3C[C@H]4O[C@H](c5cccc(N)c5)O[C@@]4(C(=O)CCl)[C@@]3(C)C[C@H](O)[C@@]12F [Compound 1] |
